Results from publication PMC12036747, “Effects of galloflavin and ellagic acid on sirtuin 6 and its anti-tumorigenic activities” (Biomedicine & pharmacotherapy = Biomedecine & …, 2020).

How the values were obtained:
Format in all cases: biochemical
[1] = molecular target: T1, SIRT1 (Homo sapiens, UniProt Q96EB6); test: Fluor de Lys deacetylation assay, moderate inhibition at […]
T1 sequence (Q96EB6 2-747): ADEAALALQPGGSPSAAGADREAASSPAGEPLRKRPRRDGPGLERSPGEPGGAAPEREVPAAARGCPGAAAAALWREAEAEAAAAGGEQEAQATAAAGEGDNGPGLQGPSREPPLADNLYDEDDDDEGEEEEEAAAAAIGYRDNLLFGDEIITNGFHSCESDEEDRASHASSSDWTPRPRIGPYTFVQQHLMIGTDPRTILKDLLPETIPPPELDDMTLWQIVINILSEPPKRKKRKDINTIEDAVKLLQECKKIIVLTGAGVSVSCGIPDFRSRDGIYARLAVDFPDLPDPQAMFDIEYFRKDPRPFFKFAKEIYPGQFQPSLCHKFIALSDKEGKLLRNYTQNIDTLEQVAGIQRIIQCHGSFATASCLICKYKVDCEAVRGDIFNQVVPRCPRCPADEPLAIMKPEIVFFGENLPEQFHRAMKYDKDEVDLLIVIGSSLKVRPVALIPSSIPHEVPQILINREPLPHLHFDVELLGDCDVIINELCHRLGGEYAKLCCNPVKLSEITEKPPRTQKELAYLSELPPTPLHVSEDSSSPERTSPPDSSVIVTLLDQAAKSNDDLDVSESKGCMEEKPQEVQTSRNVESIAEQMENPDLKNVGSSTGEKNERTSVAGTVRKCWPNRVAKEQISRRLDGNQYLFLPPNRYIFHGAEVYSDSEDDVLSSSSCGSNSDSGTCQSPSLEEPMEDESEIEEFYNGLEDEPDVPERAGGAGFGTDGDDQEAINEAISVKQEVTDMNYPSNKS

[2] = molecular target: T2, SIRT3 (Homo sapiens, UniProt Q9NTG7); test: as above
T2 sequence (Q9NTG7 102-399): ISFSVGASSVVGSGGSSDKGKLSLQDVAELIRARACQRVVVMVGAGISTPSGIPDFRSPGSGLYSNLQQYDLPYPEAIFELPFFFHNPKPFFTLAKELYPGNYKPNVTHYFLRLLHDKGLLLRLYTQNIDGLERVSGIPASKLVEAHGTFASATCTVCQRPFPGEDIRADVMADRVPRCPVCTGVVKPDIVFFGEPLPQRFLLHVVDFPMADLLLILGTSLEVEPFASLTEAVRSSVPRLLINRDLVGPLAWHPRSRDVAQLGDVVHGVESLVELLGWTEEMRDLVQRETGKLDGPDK

[3] = molecular target: T3, Sirtuin 6 (SIRT6) (Homo sapiens, UniProt Q8N6T7); test: HPLC deacetylation assay with H3K9Ac peptide (activation); immunoblot with core histones
T3 construct: recombinant GST-tagged human SIRT6
T3 sequence (Q8N6T7 2-355): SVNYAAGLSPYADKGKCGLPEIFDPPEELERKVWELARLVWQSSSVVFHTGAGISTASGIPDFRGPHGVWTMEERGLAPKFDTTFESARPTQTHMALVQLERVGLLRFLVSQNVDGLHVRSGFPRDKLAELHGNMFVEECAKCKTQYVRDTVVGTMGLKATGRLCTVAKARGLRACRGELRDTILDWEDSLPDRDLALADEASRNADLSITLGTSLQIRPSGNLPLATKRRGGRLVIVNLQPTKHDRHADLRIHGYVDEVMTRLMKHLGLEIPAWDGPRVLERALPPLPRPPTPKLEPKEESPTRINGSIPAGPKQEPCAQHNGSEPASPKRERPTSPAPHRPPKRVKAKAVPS

[4] = molecular target: T4, SIRT2 (Homo sapiens, UniProt Q8IXJ6); test: Fluor de Lys deacetylation assay, inhibition at […]
T4 sequence (Q8IXJ6 2-389): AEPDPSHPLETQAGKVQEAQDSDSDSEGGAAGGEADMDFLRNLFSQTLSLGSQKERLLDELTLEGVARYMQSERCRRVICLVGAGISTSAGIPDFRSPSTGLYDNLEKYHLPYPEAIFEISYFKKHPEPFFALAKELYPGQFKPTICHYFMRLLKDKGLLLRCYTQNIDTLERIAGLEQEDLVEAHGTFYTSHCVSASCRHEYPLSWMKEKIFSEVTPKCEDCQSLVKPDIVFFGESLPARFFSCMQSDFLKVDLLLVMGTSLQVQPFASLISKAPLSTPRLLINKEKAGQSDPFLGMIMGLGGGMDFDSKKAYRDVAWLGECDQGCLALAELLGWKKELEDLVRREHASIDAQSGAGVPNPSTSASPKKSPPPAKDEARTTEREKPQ

[5] = molecular target: T3, Sirtuin 6 (SIRT6); test: HPLC deacetylation assay with H3K9Ac peptide (activation); immunoblot with core histones; Michaelis-Menten kinetics

EC50 [3] [µM]	SMILES	Fluor de Lys deacetylation assay, moderate inhibition at 100 μM [1]	Fluor de Lys deacetylation assay, moderate inhibition at 100 μM [2]	% [4]	EC50 [5] [µM]
79	O=c1oc2c(cc1O)oc(=O)c1cc(O)c(O)c(O)c12 [Galloflavin]	Galloflavin and Ellagic acid displayed moderate inhibition against SIRT1 and SIRT3	Galloflavin and Ellagic acid displayed moderate inhibition against SIRT1 and SIRT3	up to 60 % inhibition at 100 μM	–
–	O=c1oc2c(O)c(O)cc3c(=O)oc4c(O)c(O)cc1c4c23 [Ellagic acid]	Galloflavin and Ellagic acid displayed moderate inhibition against SIRT1 and SIRT3	Galloflavin and Ellagic acid displayed moderate inhibition against SIRT1 and SIRT3	up to 60 % inhibition at 100 μM	25
